Results on 17 molecules are retold here after patent US20240391931A1 (Bristol-Myers Squibb Company, priority 2021, published 2024).

One assay relates to BT474 cells. Put plainly: Cellular proliferation in BT474 cells (CellTiter Glo). It counts as cell-based, human. The settings on record: 120 h, redosed after 72 h. The protocol: (§1) In addition to the engineered cell lines, the following cell lines were used: BT474 (human breast carcinoma), N87 (human gastric carcinoma), NCI-H1781 (human lung adenocarcinoma), and A431 (human epidermoid carcinoma); all cell lines were obtained from the American Type Culture Collection (ATCC, Manassas, VA). NCI-H1781 were grown in complete RPMI 1640 (Life Technologies, Carlsbad, CA) supplemented with 15% fetal bovine serum (FBS, Life Technologies, Carlsbad, CA) and 1% Penicillin-Streptomycin (P/S, Life Technologies, Carlsbad, CA). N87 cells were grown in complete RPMI 1640 supplemented with 10% FBS and 1% P/S. BT474 and A431 cells were grown in DMEM (Life Technologies, Carlsbad, CA) supplemented with 10% FBS and 1% P/S. All cells were maintained and propagated in a humidified 5% CO2 incubator at 37° C.
(§2) Cell proliferation in adherent cells was investigated in two HER2 amplified cell lines (BT474, N87), and a HER2VC expressing cell line (NCI-H1781). BT474, NCI-H1781, and N87 were plated in their appropriate growth media supplemented with either 10% FBS (BT474, N87) or 15% FBS (NCI-H1781) and 1% P/S in 96-well white clear-bottom tissue culture plates (Costar, Sigma-Aldrich). The starting cell densities were 3500, 5500, and 5000 cells for BT474, NCI-H1781, and N87 cells, respectively. An 8-point standard curve with varying cell densities (starting at 50000 cells and serially diluting down 2-fold) was prepared for each cell line and read 6 h after plating. Cells were allowed to attach overnight prior to compound treatment. Compound solutions were prepared by serially diluting test compounds in DMSO (Sigma-Aldrich), then diluting 500× in their corresponding serum free media. Cells were treated by adding a 1:1 volume of test compound to a final concentration of […], 0.004, 0.0014, or 0.0005 μM, in 0.1% DMSO and 5% FBS (for BT474 and N87) or 7.5% FBS (NCI-H1781). In BT474 and NCI-H1781, cell media was replaced and cells were redosed with fresh test compound solutions after 72 h. Viability was determined by CellTiter Glo (Promega, Madison, WI) after 72 h for N87 cells, and after 120 h for BT474 and […] cells. The results were converted to cell numbers using a standard curve; growth inhibition (GI50 values) were determined by Graph Pad Prism. […] The results are provided in Table 4, under columns titled “BT474-GI50”, “N87-GI50”, and “NCI-H1781-GI50”.
A general note: In ATP-based viability assays light output follows the ATP content of the culture.

The test system of a further assay is NCI-H1781 cells. Briefly: Cellular proliferation in NCI-H1781 cells (CellTiter Glo). The note with it: 120 h, redosed after 72 h. It counts as cell-based, human. The protocol: as §1, §2
The target of the next assay is T1, HER2VC (G776delinsVC) (Homo sapiens, UniProt P04626, G776C/INS775V).
T1 construct: NCI-H1781 cells which endogenously expresses a HER2 mutant protein; endogenous in cells; host or cells: NCI-H1781
T1 sequence (P04626 with tags, fused parts or gaps INS775V/G776C): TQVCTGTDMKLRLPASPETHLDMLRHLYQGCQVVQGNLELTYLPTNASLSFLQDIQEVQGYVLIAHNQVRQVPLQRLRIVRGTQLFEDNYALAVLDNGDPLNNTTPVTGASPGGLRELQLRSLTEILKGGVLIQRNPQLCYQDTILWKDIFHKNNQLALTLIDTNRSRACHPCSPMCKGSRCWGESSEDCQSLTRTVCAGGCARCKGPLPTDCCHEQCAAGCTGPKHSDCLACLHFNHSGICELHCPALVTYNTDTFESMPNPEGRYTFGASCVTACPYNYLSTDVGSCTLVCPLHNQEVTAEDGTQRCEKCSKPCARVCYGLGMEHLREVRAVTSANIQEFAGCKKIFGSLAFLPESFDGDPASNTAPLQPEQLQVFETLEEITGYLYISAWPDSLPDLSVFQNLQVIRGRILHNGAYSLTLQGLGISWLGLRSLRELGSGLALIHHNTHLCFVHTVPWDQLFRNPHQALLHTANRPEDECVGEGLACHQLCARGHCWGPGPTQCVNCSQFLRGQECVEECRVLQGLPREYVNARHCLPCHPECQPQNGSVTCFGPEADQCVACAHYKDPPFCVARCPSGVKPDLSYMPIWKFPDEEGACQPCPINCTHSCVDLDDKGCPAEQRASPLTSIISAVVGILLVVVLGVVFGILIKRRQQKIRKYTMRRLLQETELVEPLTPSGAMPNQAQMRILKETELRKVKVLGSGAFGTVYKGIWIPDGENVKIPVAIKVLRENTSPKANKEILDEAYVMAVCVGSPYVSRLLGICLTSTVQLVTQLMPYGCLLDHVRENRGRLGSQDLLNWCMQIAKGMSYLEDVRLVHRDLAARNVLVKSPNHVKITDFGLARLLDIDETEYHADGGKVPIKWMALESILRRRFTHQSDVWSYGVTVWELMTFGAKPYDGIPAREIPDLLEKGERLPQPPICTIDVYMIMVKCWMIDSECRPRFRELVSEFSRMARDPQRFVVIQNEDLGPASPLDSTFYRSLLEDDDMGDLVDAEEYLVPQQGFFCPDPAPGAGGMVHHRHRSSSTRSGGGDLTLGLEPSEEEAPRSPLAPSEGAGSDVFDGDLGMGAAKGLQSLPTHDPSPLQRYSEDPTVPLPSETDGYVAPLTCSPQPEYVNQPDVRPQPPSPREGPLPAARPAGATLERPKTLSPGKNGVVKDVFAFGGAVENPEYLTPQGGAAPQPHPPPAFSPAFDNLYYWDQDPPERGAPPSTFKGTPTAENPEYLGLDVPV
Put plainly: HER2 signaling (pHER2) in NCI-H1781 cells. In kind it is cell-based. The settings on record: 1.5 hr compound, 1% FBS. As to the method:
as §1
HER2 signaling was assessed in BT474 and N87 cell lines which endogenously overexpress the HER2 wildtype (WT) protein, in NCI-H1781 cells which endogenously expresses a HER2 mutant protein containing a VC insertion in the kinase domain (HER2VC or G776delinsVC), and in engineered cell lines transduced to express the Her2 mutant protein containing the YVMA insertion (Hek293-HER2YVMA and BEAS2B-HER2YVMA).
BT474, N87, and NCI-H1781 were plated in 96-well tissue-culture treated plates (Corning Costar, Sigma-Aldrich) in full media and incubated overnight. Hek293-HER2YVMA and BEAS2B-HER2YVMA cells were plated in 96-well poly-D-lysine treated plates (BD Bioscience, San Jose, CA). For treatment with test compounds, the media was replaced with corresponding low serum media (1% FBS) containing test compound at 1.1, 0.37, 0.12, 0.041, 0.014, 0.005, 0.0014, 0.0005 μM or DMSO control (0.1%). Cells were incubated with compound for 1.5 hr at 37° C. After compound treatment, the media was removed and cells were lysed for 30 min on ice in complete MSD lysis buffer (prepared using MSD base lysis buffer (Meso-Scale Discovery) supplemented with cOmplete, EDTA-free Protease inhibitor cocktail (Roche), Phosphatase Inhibitor Cocktails 2 and 3 (Sigma-Aldrich), and 1 mM PMSF (Sigma-Aldrich)). Lysates were stored at −70° C. until further analysis.
HER2 signaling was evaluated using phospho (Tyr1248)/total ErbB2 whole cell lysate MSD plates (Meso-Scale Discovery, Gaithersburg, MD). The phospho HER2 signal was normalized to total HER2 for each sample; results are reported as % DMSO control. The normalized data was fitted using a sigmoidal curve analysis program (Graph Pad Prism version 6) with variable Hill slope to determine EC50 values.
The HER2 signaling results are provided in Table 4, under columns titled “BT474-pHER2 EC50”, “N87-pHER2 EC50”, and “NCI-H1781-pHER2 EC50”. Hek293-HER2YVMA ins fall under the heading “HEKYVMA-pHER2 EC50”, Ba/F3 HER2YVMA fall under the heading “Ba/F3 YVMA-pHER2 EC50” and BEAS2B-HER2YVMA fall under the heading “BEAS2B YVMA-pHER2 EC50”.

The next assay deals with N87 cells. Put plainly: Cellular proliferation in N87 cells (CellTiter Glo). In kind it is cell-based, human. The settings on record: 72 h. The protocol: as §1, §2
Where [1] appears, read: Homo sapiens, BT-474, BT474 cells.
[2] abbreviates: Homo sapiens, NCI-H1781, NCI-H1781 cells.

On to `Cc1ccc(Oc2ccc(Nc3ncnc4sc5c(c34)CN(C(=O)C=CCN(C)C)C5C)cc2C)cn1` (single isomer, unassigned) [Compound 169], for which the GI50 with BT474 cells (setting [1]), in the assay with NCI-H1781 cells (NCI-H1781 cells) and with N87 cells (Homo sapiens) was under 100 nM in each case. Besides, the EC50 – broadly, the concentration at which the effect is half-maximal – at HER2VC (G776delinsVC) was under 100 nM.
On to `Cc1ccc(Oc2ccc(Nc3ncnc4sc5c(c34)CN(C(=O)/C=C/CN(C)C)CC5)cc2C)cn1` [Compound 108, (E)-4-(Dimethylamino)-1-(4-((3-methyl-4-((6-methylpyridin-3-yl)oxy)phenyl)amino)-7,8-dihydropyrido[3′,4′:4,5]thieno[2,3-d]pyrimidin-6(5H)-yl)but-2-en-1-one], for which the GI50 in the assay with BT474 cells (setting [1]), in the assay with NCI-H1781 cells (setting [2]) and with N87 cells (Homo sapiens) was under 100 nM each time.
As to `Cc1ccc(Oc2ccc(Nc3ncnc4sc5c(c34)C(C)N(C(=O)C=CCN(C)C)C5)cc2C)cn1` (single isomer, unassigned) [Compound 147], the concentration for 50% growth inhibition (GI50) in the assay on BT474 cells (setting [1]), in the assay on NCI-H1781 cells (setting [2]) and with N87 cells (Homo sapiens) was under 100 nM each time. For the same molecule, the EC50 at HER2VC (G776delinsVC) is under 100 nM.
On to `COc1ccc(Oc2ccc(Nc3ncnc4sc5c(c34)CCN(C(=O)/C=C/CN3CCOCC3)C5)cc2C)cn1` [Compound 164], for which the figures for the GI50 in the assay with BT474 cells (setting [1]), in the assay on NCI-H1781 cells (setting [2]) and in the assay on N87 cells (Homo sapiens) were under 100 nM, 100 to 350 nM and under 100 nM, respectively. This molecule also showed an EC50 at HER2VC (G776delinsVC) of under 100 nM.
With `Cc1ccc(Oc2ccc(Nc3ncnc4sc5c(c34)CCN(C(=O)/C=C/CN3CCC(O)C(C)(C)C3)C5)cc2C)cn1` (stereo not drawn) [Compound 114], the 50% growth inhibitory concentration (GI50) in the assay with BT474 cells (setting [1]), in the assay on NCI-H1781 cells (setting [2]) and with N87 cells (Homo sapiens) was under 100 nM each time.
As for `Cc1cc(Nc2ncnc3sc4c(c23)CN(C(=O)/C=C/CN(C)C)C4)ccc1Oc1ccn2ncnc2c1` [Compound 130, (E)-1-(4-((4-([1,2,4]Triazolo[1,5-a]pyridin-7-yloxy)-3-methylphenyl)amino)-5H-pyrrolo[3′,4′:4,5]thieno[2,3-d]pyrimidin-6(7H)-yl)-4-(dimethylamino)but-2-en-1-one], the GI50 with BT474 cells (setting [1]), in the assay on NCI-H1781 cells (setting [2]) and with N87 cells (Homo sapiens) was under 100 nM in each case.
On to `COc1ccc(Oc2ccc(Nc3ncnc4sc5c(c34)C(C)CN(C(=O)/C=C/CN(C)C)C5)cc2C)cn1` (stereo not drawn) [Compound 152, (E)-4-(dimethylamino)-1-(4-((4-((6-methoxypyridin-3-yl)oxy)-3-methylphenyl)amino)-5-methyl-5,8-dihydropyrido[4′,3′:4,5]thieno[2,3-d]pyrimidin-7(6H)-yl)but-2-en-1-one], for which the GI50 in the assay on BT474 cells (setting [1]), with NCI-H1781 cells (setting [2]) and with N87 cells (Homo sapiens) was under 100 nM each time. The molecule further returned an EC50 at HER2VC (G776delinsVC) of under 100 nM.
With `Cc1ccc(Oc2ccc(Nc3ncnc4sc5c(c34)CCN(C(=O)/C=C/CN3CC[C@H](F)C3)C5)cc2C)cn1` [Compound 124], the GI50 in the assay with BT474 cells (setting [1]), with NCI-H1781 cells (setting [2]) and in the assay with N87 cells (Homo sapiens) was under 100 nM throughout.
`COc1ccc(Oc2ccc(Nc3ncnc4sc5c(c34)C(C)CN(C(=O)C=CCN(C)C)C5)cc2C)cn1` (single isomer, unassigned) [Compound 160]: the GI50 in the assay on BT474 cells (BT474 cells), in the assay with NCI-H1781 cells (NCI-H1781 cells) and in the assay on N87 cells was under 100 nM in each case. Further, the EC50 on HER2VC (G776delinsVC) is under 100 nM.
As for `Cc1cc(Nc2ncnc3sc4c(c23)CCN(C(=O)/C=C/CN(C)C)C4)ccc1Oc1ccn2ccnc2c1` [Compound 126, (E)-4-(dimethylamino)-1-(4-((4-(imidazo[1,2-a]pyridin-7-yloxy)-3-methylphenyl)amino)-5,8-dihydropyrido[4′,3′:4,5]thieno[2,3-d]pyrimidin-7(6H)-yl)but-2-en-1-one], the GI50 – broadly, the concentration at which growth is held to half of that of the control – in the assay with BT474 cells (setting [1]) was under 100 nM; with NCI-H1781 cells (Homo sapiens, NCI-H1781 cells), under 100 nM; with N87 cells (Homo sapiens) it was under 100 nM.
As for `Cc1ccc(Oc2ccc(Nc3ncnc4sc5c(c34)C(C)CN(C(=O)/C=C/CN3CCOCC3)C5)cc2C)cn1` (stereo not drawn) [Compound 174, (E)-1-(5-Methyl-4-((3-methyl-4-((6-methylpyridin-3-yl)oxy)phenyl)amino)-5,6-dihydropyrido[4′,3′:4,5]thieno[2,3-d]pyrimidin-7(8H)-yl)-4-morpholinobut-2-en-1-one], the GI50 in the assay on NCI-H1781 cells (setting [2]) is 100 to 350 nM; in the assay with N87 cells (Homo sapiens), under 100 nM. Further, on HER2VC (G776delinsVC), the EC50 is under 100 nM.
`Cc1ccc(Oc2ccc(Nc3ncnc4sc5c(c34)CCN(C(=O)/C=C/CN(C)C)C5)cc2C)cn1` [Compound 8, (E)-4-(Dimethylamino)-1-(4-((3-methyl-4-((6-methylpyridin-3-yl)oxy)phenyl)amino)-5,6-dihydropyrido[4′,3′:4,5]thieno[2,3-d]pyrimidin-7(8H)-yl)but-2-en-1-one]: the GI50 with BT474 cells (setting [1]) is under 100 nM; in the assay with NCI-H1781 cells (Homo sapiens, NCI-H1781 cells), under 100 nM; in the assay with N87 cells (Homo sapiens), under 100 nM. Also, on HER2VC (G776delinsVC), the EC50 is under 100 nM.
Regarding `Cc1nc2cc(Oc3ccc(Nc4ncnc5sc6c(c45)CCN(C(=O)/C=C/CN(C)C)C6)cc3C)ccn2n1` [Compound 127, (E)-4-(dimethylamino)-1-(4-((3-methyl-4-((2-methyl-[1,2,4]triazolo[1,5-a]pyridin-7-yl)oxy)phenyl)amino)-5,6-dihydropyrido[4′,3′:4,5]thieno[2,3-d]pyrimidin-7(8H)-yl)but-2-en-1-one], the concentration for 50% growth inhibition (GI50) is under 100 nM in the assay on BT474 cells (setting [1]); 100 to 350 nM in the assay with NCI-H1781 cells (Homo sapiens, NCI-H1781 cells); under 100 nM in the assay on N87 cells (Homo sapiens).
On to `COc1cc(Nc2ncnc3sc4c(c23)CCN(C(=O)/C=C/CN(C)C)C4)ccc1Oc1ccccc1` [Compound 7, (E)-4-(dimethylamino)-1-(4-((3-methoxy-4-phenoxyphenyl)amino)-5,8-dihydropyrido[4′,3′:4,5]thieno[2,3-d]pyrimidin-7(6H)-yl)but-2-en-1-one], for which the EC50 on HER2VC (G776delinsVC) is under 100 nM.
`C=CC(=O)N1CCc2c(sc3ncnc(Nc4ccc(Oc5cccnc5)c(Cl)c4)c23)C1` [Compound 6, 1-(4-((3-chloro-4-(pyridin-3-yloxy)phenyl)amino)-5,8-dihydropyrido[4′,3′:4,5]thieno[2,3-d]pyrimidin-7(6H)-yl)prop-2-en-1-one] yielded an EC50 on HER2VC (G776delinsVC) of under 100 nM.
For `Cc1ccc(Oc2ccc(Nc3ncnc4sc5c(c34)CCN(C(=O)/C=C/CN3CC4CC4(CO)C3)C5)cc2C)cn1` (stereo not drawn) [Compound 118], the GI50 in the assay with BT474 cells (setting [1]), in the assay on NCI-H1781 cells (setting [2]) and in the assay with N87 cells (Homo sapiens) was under 100 nM each time.
As to `Cc1ccc(Oc2ccc(Nc3ncnc4sc5c(c34)C(C)CN(C(=O)C=CCN3CCOCC3)C5)cc2C)cn1` (single isomer, unassigned) [Compound 177], at HER2VC (G776delinsVC), the 50% effective concentration (EC50) is under 100 nM.
